Consider 17 compounds from US10000535B2, “Template-fixed peptidomimetics” (POLYPHOR LTD., priority 2007, dated 2018).

Non-standard residues stand in square brackets, D forms with d. Residues, ends and D or L forms follow the SMILES beside them. Tic = O=C(O)[C@@H]1Cc2ccccc2CN1; Orn = NCCC[C@H](N)C(=O)O; Aze = O=C(O)[C@@H]1CCN1; Aib = CC(C)(N)C(=O)O

The first assay has as its target T1, human UTR2 receptor (Homo sapiens, UniProt Q9UKP6).
T1 construct: expressed in transfected cells; host or cells: mouse pre-B cell line 300-19
T1 sequence (Q9UKP6 1-389): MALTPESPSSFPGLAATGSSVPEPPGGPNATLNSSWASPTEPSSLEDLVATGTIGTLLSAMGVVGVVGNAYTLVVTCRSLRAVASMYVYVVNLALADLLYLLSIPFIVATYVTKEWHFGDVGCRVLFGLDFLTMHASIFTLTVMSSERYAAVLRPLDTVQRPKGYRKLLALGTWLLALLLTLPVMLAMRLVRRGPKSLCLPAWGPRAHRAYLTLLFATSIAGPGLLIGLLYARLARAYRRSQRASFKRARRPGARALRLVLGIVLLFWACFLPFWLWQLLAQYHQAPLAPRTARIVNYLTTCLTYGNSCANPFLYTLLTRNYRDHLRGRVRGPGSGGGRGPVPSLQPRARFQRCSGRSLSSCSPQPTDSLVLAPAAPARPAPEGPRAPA
The assay is described as follows: Calcium mobilization assay, antagonist activity at urotensin receptor. It is filed as cell-based. As to conditions: pre-incubation before urotensin, 300-19 cells with human UTR2, read-out: IC50% (μM) ± SD, Urotensin receptor. Here is the method: (§1) The mouse pre-B cell line 300-19 was stably transfected with the cDNA encoding the human UTR2 receptor (GenBank Acc#NM_018949), and expression was confirmed with a positive calcium signal in response to human urotensin (Sigma Aldrich). Increases in intracellular calcium were monitored using a Flexstation 384 (Molecular Devices, Sunnyvale, Calif.). The cells were batch loaded with the Calcium 3 Assay kit (Molecular Devices) in assay buffer (Hanks Balanced salt solution, HBSS, 20 mM HEPES, pH 7.4, 0.1% BSA) for 1 h at room temperature and labeled cells were dispensed into either black 96 well or 384 well assay plates (Greiner). Calcium mobilization induced by urotensin or compounds was measured in the Flexstation 384 (excitation, […]) for 70 seconds. Agonist activity was determined by direct addition of ligand or peptides, while antagonists were identified by pre-incubation of compounds with cells prior to urotensin addition. A dose response curve (compound concentration versus % maximum response for urotensin) was determined for each active agonist and antagonist and was fitted to a four parameter logistic equation using SoftmaxPro 4.6 (Molecular Devices), from which EC50% and IC50% values were calculated.
On the technique in general: A change in cytosolic calcium serves as a functional read-out for many receptors and channels.
Take `CC[C@H](C)[C@@H]1NC(=O)[C@@H]2Cc3ccccc3CN2C(=O)[C@H]2CCCN2C(=O)[C@H]([C@@H](C)CC)NC(=O)C(C)(C)NC(=O)[C@@H](CCCNC(=N)N)NC1=O` [Example 19] (cyclo(I[dR][Aib]I[dP][Tic])): the IC50 amounted to 6.2 ± 1.5 µM.

The target in another assay is T2, human CCR10 (Homo sapiens, UniProt P46092).
T2 construct: expressed in transfected cells; host or cells: mouse pre-B cell line 300-19
T2 sequence (P46092 1-362): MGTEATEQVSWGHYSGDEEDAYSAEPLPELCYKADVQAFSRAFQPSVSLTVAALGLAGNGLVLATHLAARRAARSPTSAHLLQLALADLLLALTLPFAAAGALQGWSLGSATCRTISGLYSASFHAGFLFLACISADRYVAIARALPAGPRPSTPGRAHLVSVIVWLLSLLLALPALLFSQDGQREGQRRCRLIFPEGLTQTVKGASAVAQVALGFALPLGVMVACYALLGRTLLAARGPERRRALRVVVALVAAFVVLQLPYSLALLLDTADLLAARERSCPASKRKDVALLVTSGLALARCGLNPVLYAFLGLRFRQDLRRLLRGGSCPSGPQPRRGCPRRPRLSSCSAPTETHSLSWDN
The assay is described as follows: Calcium flux antagonism assay with human CCL27. It is filed as cell-based. As to conditions: 300-19 cells with human CCR10, human CCL27, read-out: IC50% (μM), CCR10 receptor. The procedure: as §1
Peptides for CCR10 (Marchese et. al. 1994, Homey et. al.) and CXCR3 (Loetscher et. al. 1998, Marchese et. al. 1995) antagonism were assayed in a mouse pre-B cell line 300-19 stably transfected with either human CCR10 or CXCR3 (Marchese et. al. 1995). Antagonism at each receptor was measured with a calcium flux assay in these cells as described above for UTR2 assays using human CCL27 and human CXCL10 (Cole et. al.) for CCR10 and CXCR3 respectively.
Selectivity was measured using the calcium flux assay on a panel of human chemokine receptor bearing cell lines (CCR1, CCR2, CCR3, CCR4, CCR5, CCR6, CCR7, CCR8, CCR9, CCR10, CXCR1, CXCR2, CXCR2, CXCR4, CXCR6 and CXCCR1) using the same method as above
On to `CC(C)[C@H]1NC(=O)[C@H](Cc2c[nH]c3ccccc23)NC(=O)[C@@H]2Cc3ccccc3CN2C(=O)[C@H]2CCCN2C(=O)[C@H](CCCN)NC(=O)[C@H](Cc2c[nH]c3ccccc23)NC1=O` [Example 17] (cyclo(W[dV]W[Orn][dP][Tic])), for which the IC50 amounted to 0.31 µM.

For `CC(C)[C@H]1NC(=O)[C@H](Cc2c[nH]c3ccccc23)NC(=O)[C@@H]2Cc3ccccc3CN2C(=O)[C@H]2CCCN2C(=O)[C@H](CCCCN)NC(=O)[C@H](Cc2c[nH]c3ccccc23)NC1=O` [Example 18] (cyclo(W[dV]WK[dP][Tic])), the IC50 came out at 0.29 µM.

A further assay addresses T1, human UTR2 receptor. Description: Calcium mobilization assay, agonist activity at urotensin receptor. It is filed as cell-based. As to conditions: mouse pre-B 300-19 cells transfected with human UTR2, read-out: EC50% (nM) ± SD, Urotensin receptor. The procedure: as §1
Consider `NCCCC[C@@H]1NC(=O)[C@H](Cc2c[nH]c3ccccc23)NC(=O)[C@H](Cc2ccccc2)NC(=O)[C@@H]2CCN2C(=O)[C@H]2CCCN2C(=O)[C@H](Cc2ccc(O)cc2)NC1=O` [Example 4] (cyclo(FWKY[dP][Aze])), for which the EC50 was found to be 20 ± 5 nM.

In the case of `COc1ccc2c3c1CNC(=O)[C@H](Cc1ccc(O)cc1)NC(=O)[C@H](CCCCN)NC(=O)[C@H](Cc1c[nH]c4ccccc14)NC(=O)[C@H](Cc1ccccc1)NC(=O)Cc1c(OC)ccc(c1O3)C2(C)C` [Example 8], the EC50 is 18 ± 3 nM.

In the case of `COc1ccc2c3c1CNC(=O)[C@H](Cc1c[nH]cn1)NC(=O)[C@H](Cc1ccc(O)cc1)NC(=O)[C@H](CCCCN)NC(=O)[C@H](Cc1c[nH]c4ccccc14)NC(=O)Cc1c(OC)ccc(c1O3)C2(C)C` [Example 12], the EC50 was determined as 218 nM.

`C[C@@H](O)[C@@H]1NC(=O)[C@@H]2CCN2C(=O)[C@H]2CCCN2C(=O)[C@H](Cc2ccc(O)cc2)NC(=O)[C@H](CCCCN)NC(=O)[C@H](Cc2c[nH]c3ccccc23)NC1=O` [Example 7] (cyclo(TWKY[dP][Aze])): the EC50 is 286 ± 66 nM.

Regarding `CC[C@H](C)[C@@H]1NC(=O)[C@@H]2Cc3ccccc3CN2C(=O)[C@H]2CCCN2C(=O)[C@H](Cc2ccc(O)cc2)NC(=O)[C@H](CCCCN)NC(=O)[C@H](Cc2c[nH]c3ccccc23)NC1=O` [Example 2] (cyclo(IWKY[dP][Tic])), the EC50 was determined as 68 ± 32 nM.

With `NCCCC[C@@H]1NC(=O)[C@H](Cc2c[nH]c3ccccc23)NC(=O)[C@H](Cc2ccccc2)NC(=O)[C@@H]2Cc3ccccc3CN2C(=O)[C@H]2CCCN2C(=O)[C@H](Cc2ccc(O)cc2)NC1=O` [Example 1] (cyclo(FWKY[dP][Tic])), the EC50 is 54 ± 12 nM.

Turning to `CC[C@H](C)[C@@H]1NC(=O)Cc2c(OC)ccc3c2Oc2c(ccc(OC)c2CNC(=O)[C@H](Cc2ccc(O)cc2)NC(=O)[C@H](CCCCN)NC(=O)[C@H](Cc2c[nH]c4ccccc24)NC1=O)C3(C)C` [Example 11], the half-maximal effective concentration (EC50) is 192 ± 14 nM.

`COc1ccc2c3c1CNC(=O)[C@H](Cc1ccc(O)cc1)NC(=O)[C@H](CCCCN)NC(=O)[C@H](Cc1c[nH]c4ccccc14)NC(=O)[C@H](CCC(=O)O)NC(=O)Cc1c(OC)ccc(c1O3)C2(C)C` [Example 13]: the EC50 came to 274 ± 5 nM.

For `COc1ccc2c3c1CNC(=O)[C@H](Cc1ccc(O)cc1)NC(=O)[C@H](CCCCN)NC(=O)[C@H](Cc1c[nH]c4ccccc14)NC(=O)[C@H]([C@@H](C)O)NC(=O)Cc1c(OC)ccc(c1O3)C2(C)C` [Example 9], the EC50 was 160 ± 81 nM.

`NCCCC[C@@H]1NC(=O)[C@H](Cc2c[nH]c3ccccc23)NC(=O)[C@H](CCC(N)=O)NC(=O)[C@@H]2Cc3ccccc3CN2C(=O)[C@H]2CCCN2C(=O)[C@H](Cc2ccc(O)cc2)NC1=O` [Example 3] (cyclo(QWKY[dP][Tic])): the EC50 came out at 82 ± 13 nM.

For the compound `COc1ccc2c3c1CNC(=O)[C@H](Cc1ccc(O)cc1)NC(=O)[C@H](CCCCN)NC(=O)[C@H](Cc1c[nH]c4ccccc14)NC(=O)[C@H](CCC(N)=O)NC(=O)Cc1c(OC)ccc(c1O3)C2(C)C` [Example 10], the EC50 is 170 ± 40 nM.

For the compound `CC[C@H](C)[C@@H]1NC(=O)[C@@H]2CCN2C(=O)[C@H]2CCCN2C(=O)[C@H](Cc2ccc(O)cc2)NC(=O)[C@H](CCCCN)NC(=O)[C@H](Cc2c[nH]c3ccccc23)NC1=O` [Example 5] (cyclo(IWKY[dP][Aze])), the EC50 amounted to 45 ± 22 nM.

For `NCCCC[C@@H]1NC(=O)[C@H](Cc2c[nH]c3ccccc23)NC(=O)[C@H](CCC(N)=O)NC(=O)[C@@H]2CCN2C(=O)[C@H]2CCCN2C(=O)[C@H](Cc2ccc(O)cc2)NC1=O` [Example 6] (cyclo(QWKY[dP][Aze])), the EC50 was determined as 134 ± 61 nM.

Regarding `CC[C@H](C)[C@@H]1NC(=O)C[C@@H]2NC(=O)[C@@H]3C[C@@H](CN3C2=O)NC(=O)[C@H](Cc2ccc(O)cc2)NC(=O)[C@H](CCCCN)NC(=O)[C@H](Cc2c[nH]c3ccccc23)NC1=O` [Example 14], the EC50 is 189 ± 13 nM.

By IC50 is commonly meant the concentration that gives 50% inhibition. As usually defined, the EC50 is the concentration giving half of the maximal effect.
